Laboratory results published in US8541363B2, “Pyruvamide compounds as inhibitors of dust mite group 1 peptidase allergen and their use” (St George's Hosptial Medical School, priority 2010, dated 2013).
Read-outs that look alike come from different tables or passages of the source.

Columns and labels:
Der p 1 = Der p 1 (Dermatophagoides pteronyssinus (European house dust mite), UniProt P08176); assay: Der p 1 enzyme activity assay (FRET fluorogenic substrate); type: biochemical
[1] = system: Brown Norway rats sensitized to HDM allergens; assay: Allergen challenge study in vivo (acute allergic bronchoconstriction); design: species or system rat; details: challenge 2 hours after intratracheal dosing (100 μL of a 40 μM solution), P<0.05, Mann-Whitney Rank Sum Test
Protocol: The studies were performed in male Brown Norway rats (approximate weight 350 g at time of allergen challenge) obtained from Harlan UK Ltd. Each animal was allocated a unique identification number after sensitisation, identified by a waterproof tail mark, and randomly assigned to a treatment group. All studies were conducted in accordance with the Animals (Scientific Procedures) Act 1986, with UK Home Office Guidance on the implementation of the Act and with all applicable Codes of Practice for the care and housing of laboratory animals.
A mixture of HDM allergens was harvested from a laboratory culture of Dermatophagoides pteronyssinus. Allergen dose was standardized according to the Der p 1 content of the mixture as determined by an ELISA measurement referenced against the IUIS standard for Der p 1. […]
On Day 21 of the sensitization and challenge protocol, rats were anaesthetised with pentobarbitone (100 mg/kg, i.p.) and ventilated via a tracheal cannula (approximately 7 mL/kg, 1 Hz) with a mixture of air and oxygen (50:50). […] Ventilation was monitored by a flow transducer (Fleisch, type 0000) in-line with the respiratory pump. […] From these measurements of flow and differential pressure, both airways resistance (RL) and dynamic compliance (Cdyn) were calculated for each respiratory cycle on a digital electronic respiratory analyser (PMS, Mumed Ltd, UK). […]

[2] = Table 1, read-out: Der p 1 IC50
[3] = threshold stated in text, read-out: Der p 1 IC50

Chain of Der p 1 (P08176 99-320): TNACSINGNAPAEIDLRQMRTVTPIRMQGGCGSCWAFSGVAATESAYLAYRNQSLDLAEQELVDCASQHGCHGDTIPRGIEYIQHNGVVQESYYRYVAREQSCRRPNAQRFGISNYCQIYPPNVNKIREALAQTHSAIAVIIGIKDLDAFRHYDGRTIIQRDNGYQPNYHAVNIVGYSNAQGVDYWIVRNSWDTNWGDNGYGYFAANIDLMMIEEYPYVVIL

Row | IC50 (Der p 1; [3]) | Compound | IC50 (Der p 1; Der p 1 IC50) | IC50 (Der p 1; [2]) | magnitude of second allergen challenge (change in airway resistance) compared to first challenge [1]
1 | < 200 nM | CC(C)[C@H](NC(=O)[C@H](C)NC(=O)[C@@H](NC(=O)c1ccccc1)C(C)(C)C)C(=O)C(=O)NCc1cccc(N2CCN(C)CC2)c1 [PVA-190] |  |  | 
2 | < 20 nM | CC(C)[C@H](NC(=O)[C@H](C)NC(=O)[C@@H](NC(=O)c1ccnc2ccccc12)C(C)(C)C)C(=O)C(=O)NCC(=O)N1CCN(C(C)C)CC1 [PVA-187] |  |  | 
3 | < 200 nM | CC(C)NC(=O)C(=O)[C@@H](NC(=O)[C@H](C)NC(=O)[C@H](Cc1ccccc1)NC(=O)c1ccccc1)C(C)C [PVA-015] |  |  | 
4 | < 200 nM | CC(C)[C@H](NC(=O)[C@H](C)NC(=O)C1CCCN1C(=O)c1ccccc1)C(=O)C(=O)NCC(=O)N1CCN(C)CC1 (some centres unmarked) [PVA-145] |  |  | 

More lines, now with the values behind:

Row | Compound | IC50 (Der p 1; [3]) | IC50 (Der p 1; Der p 1 IC50) | IC50 (Der p 1; [2]) | magnitude of second allergen challenge (change in airway resistance) compared to first challenge [1]
5 | CC(C)[C@H](NC(=O)[C@H](C)NC(=O)[C@@H](NC(=O)c1ccccc1)C(C)(C)C)C(=O)C(=O)NC1CCCCC1 [PVA-026] |  | < 20 nM | 14 nM | significantly reduced
6 | CC(C)[C@H](NC(=O)[C@H](C)NC(=O)[C@@H](NC(=O)c1ccncc1)C(C)(C)C)C(=O)C(=O)NC1CCCCC1 [PVA-038] |  | < 20 nM | 13.3 nM | significantly reduced
7 | CC(C)C[C@H](NC(=O)[C@H](C)NC(=O)[C@H](Cc1ccccc1)NC(=O)c1ccccc1)C(=O)C(=O)N[C@@H](C)c1ccccc1 [PVA-002] | < 200 nM |  |  | 
8 | COc1ccc(CNC(=O)C(=O)[C@@H](NC(=O)[C@H](C)NC(=O)[C@H](Cc2ccccc2)NC(=O)c2ccncc2)C(C)C)cc1 [PVA-159] | < 200 nM |  |  | 
9 | CC(C)[C@H](NC(=O)[C@H](C)NC(=O)[C@@H](NC(=O)c1ccccc1)C(C)(C)C)C(=O)C(=O)NCc1ccc(C(F)(F)F)cc1 [PVA-181] | < 200 nM |  |  | 
10 | COc1ccc(CNC(=O)C(=O)[C@@H](NC(=O)[C@H](C)NC(=O)[C@@H](NC(=O)c2ccccc2)C(C)(C)C)C(C)C)cc1 [PVA-204] | < 20 nM |  |  | 
